According to the supplement of paper PMC10307832:

Assays:
Experiment in all cases: relative viability (nuclei count vs DMSO), 5 days (fraction); higher = more cells survive
NCI-H727 = system: NCI-H727
Outline: (§1)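 A single step with final 0.05% Triton X-100, 1% formaldehyde and 1 ug/ml Hoechst fixed the cells and stained nuclei 5 days after treatment. Lung cancer cell lines in 1536-well plates had been treated by pin tool the day after seeding with one drug alone or a fixed anchor-drug dose plus five library-drug doses (not always all listed) in √10 steps, and nuclei were counted on 4× images. Relative viability is the ratio of nuclei in treated wells to nuclei in vehicle wells, taken as the median of duplicate plates.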

COR-L 105 = system: COR-L 105
Outline: as §1

HOP-62 = system: HOP-62
Outline: as §1

NCI-H1355 = system: NCI-H1355
Outline: as §1

HCC-827 = system: HCC-827
Outline: as §1

NCI-H1755 = system: NCI-H1755
Outline: as §1

SW 1573 = system: SW 1573
Outline: as §1

HCC-366 = system: HCC-366
Outline: as §1

HARA = system: HARA
Outline: as §1

NCI-H23 = system: NCI-H23
Outline: as §1

NCI-H1975 = system: NCI-H1975
Outline: as §1

SK-LU-1 = system: SK-LU-1
Outline: as §1

NCI-H522 = system: NCI-H522
Outline: as §1

NCI-H1437 = system: NCI-H1437
Outline: as §1

NCI-H1915 = system: NCI-H1915
Outline: as §1

LCLC-103H = system: LCLC-103H
Outline: as §1

A-427 = system: A-427
Outline: as §1

NCI-H460 = system: NCI-H460
Outline: as §1

EMC-BAC-2 = system: EMC-BAC-2
Outline: as §1

NCI-H1792 = system: NCI-H1792
Outline: as §1

NCI-H2009 = system: NCI-H2009
Outline: as §1

NCI-H1395 = system: NCI-H1395
Outline: as §1

Compound: COc1cc(N2CCC(C(N)=O)CC2)ccc1Nc1nc(N)c(Cl)c(Nc2ccccc2S(=O)(=O)C(C)C)n1 [HG-5-88-01] + Nc1ncn([C@H]2C[C@H](O)[C@@H](CO)O2)c(=O)n1 [Decitabine] (partner 2 µM)
- relative viability (NCI-H727; first compound 0.04 µM): 0.913
- relative viability (NCI-H727; first compound 0.1265 µM): 0.789
- relative viability (NCI-H727; first compound 0.4 µM): 0.837
- relative viability (NCI-H727; first compound 4 µM): 0.672
- relative viability (COR-L 105; first compound 0.04 µM): 0.569
- relative viability (COR-L 105; first compound 0.1265 µM): 0.706
- relative viability (COR-L 105; first compound 0.4 µM): 0.628
- relative viability (COR-L 105; first compound 1.265 µM): 0.582
- relative viability (COR-L 105; first compound 4 µM): 0.577
- relative viability (HOP-62; first compound 0.04 µM): 0.209
- relative viability (HOP-62; first compound 0.1265 µM): 0.226
- relative viability (HOP-62; first compound 0.4 µM): 0.232
- relative viability (HOP-62; first compound 1.265 µM): 0.252
- relative viability (HOP-62; first compound 4 µM): 0.28
- relative viability (NCI-H1355; first compound 0.04 µM): 0.337
- relative viability (NCI-H1355; first compound 0.1265 µM): 0.382
- relative viability (NCI-H1355; first compound 0.4 µM): 0.38
- relative viability (NCI-H1355; first compound 1.265 µM): 0.334
- relative viability (NCI-H1355; first compound 4 µM): 0.331
- relative viability (HCC-827; first compound 0.04 µM): 0.292
- relative viability (HCC-827; first compound 0.1265 µM): 0.304
- relative viability (HCC-827; first compound 0.4 µM): 0.354
- relative viability (HCC-827; first compound 1.265 µM): 0.19
- relative viability (HCC-827; first compound 4 µM): 0.209
- relative viability (NCI-H1755; first compound 0.04 µM): 0.739
- relative viability (NCI-H1755; first compound 0.1265 µM): 0.732
- relative viability (NCI-H1755; first compound 0.4 µM): 0.829
- relative viability (NCI-H1755; first compound 1.265 µM): 0.688
- relative viability (NCI-H1755; first compound 4 µM): 0.836
- relative viability (SW 1573; first compound 0.04 µM): 0.454
- relative viability (SW 1573; first compound 0.1265 µM): 0.593
- relative viability (SW 1573; first compound 0.4 µM): 0.423
- relative viability (SW 1573; first compound 1.265 µM): 0.428
- relative viability (SW 1573; first compound 4 µM): 0.458
- relative viability (HCC-366; first compound 0.04 µM): 0.367
- relative viability (HCC-366; first compound 0.1265 µM): 0.357
- relative viability (HCC-366; first compound 0.4 µM): 0.436
- relative viability (HCC-366; first compound 1.265 µM): 0.338
- relative viability (HCC-366; first compound 4 µM): 0.343
- relative viability (HARA; first compound 0.04 µM): 0.581
- relative viability (HARA; first compound 0.1265 µM): 0.504
- relative viability (HARA; first compound 0.4 µM): 0.663
- relative viability (HARA; first compound 1.265 µM): 0.451
- relative viability (HARA; first compound 4 µM): 0.494
- relative viability (NCI-H23; first compound 0.04 µM): 0.365
- relative viability (NCI-H23; first compound 0.1265 µM): 0.331
- relative viability (NCI-H23; first compound 0.4 µM): 0.327
- relative viability (NCI-H23; first compound 1.265 µM): 0.282
- relative viability (NCI-H23; first compound 4 µM): 0.329
- relative viability (NCI-H1975; first compound 0.04 µM): 0.409
- relative viability (NCI-H1975; first compound 0.1265 µM): 0.474
- relative viability (NCI-H1975; first compound 0.4 µM): 0.382
- relative viability (NCI-H1975; first compound 1.265 µM): 0.403
- relative viability (NCI-H1975; first compound 4 µM): 0.273
- relative viability (SK-LU-1; first compound 0.04 µM): 0.525
- relative viability (SK-LU-1; first compound 0.1265 µM): 0.595
- relative viability (SK-LU-1; first compound 0.4 µM): 0.598
- relative viability (SK-LU-1; first compound 1.265 µM): 0.598
- relative viability (SK-LU-1; first compound 4 µM): 0.344
- relative viability (NCI-H522; first compound 0.04 µM): 0.702
- relative viability (NCI-H522; first compound 0.1265 µM): 0.773
- relative viability (NCI-H522; first compound 0.4 µM): 0.69
- relative viability (NCI-H522; first compound 1.265 µM): 0.687
- relative viability (NCI-H522; first compound 4 µM): 0.649
- relative viability (NCI-H1437; first compound 0.04 µM): 0.529
- relative viability (NCI-H1437; first compound 0.1265 µM): 0.565
- relative viability (NCI-H1437; first compound 0.4 µM): 0.465
- relative viability (NCI-H1437; first compound 1.265 µM): 0.579
- relative viability (NCI-H1437; first compound 4 µM): 0.821
- relative viability (NCI-H1915; first compound 0.04 µM): 0.254
- relative viability (NCI-H1915; first compound 0.1265 µM): 0.279
- relative viability (NCI-H1915; first compound 0.4 µM): 0.275
- relative viability (NCI-H1915; first compound 1.265 µM): 0.248
- relative viability (NCI-H1915; first compound 4 µM): 0.254
- relative viability (LCLC-103H; first compound 0.04 µM): 0.776
- relative viability (LCLC-103H; first compound 0.1265 µM): 0.735
- relative viability (LCLC-103H; first compound 0.4 µM): 0.738
- relative viability (LCLC-103H; first compound 1.265 µM): 0.713
- relative viability (LCLC-103H; first compound 4 µM): 0.74
- relative viability (A-427; first compound 0.04 µM): 0.549
- relative viability (A-427; first compound 0.1265 µM): 0.598
- relative viability (A-427; first compound 0.4 µM): 0.603
- relative viability (A-427; first compound 1.265 µM): 0.585
- relative viability (A-427; first compound 4 µM): 0.547
- relative viability (NCI-H460; first compound 0.04 µM): 0.478
- relative viability (NCI-H460; first compound 0.1265 µM): 0.493
- relative viability (NCI-H460; first compound 0.4 µM): 0.494
- relative viability (NCI-H460; first compound 1.265 µM): 0.578
- relative viability (NCI-H460; first compound 4 µM): 0.419
- relative viability (EMC-BAC-2; first compound 0.04 µM): 1
- relative viability (EMC-BAC-2; first compound 0.1265 µM): 1.07
- relative viability (EMC-BAC-2; first compound 0.4 µM): 0.965
- relative viability (EMC-BAC-2; first compound 1.265 µM): 0.874
- relative viability (EMC-BAC-2; first compound 4 µM): 0.802
- relative viability (NCI-H1792; first compound 0.04 µM): 0.628
- relative viability (NCI-H1792; first compound 0.1265 µM): 0.452
- relative viability (NCI-H1792; first compound 0.4 µM): 0.579
- relative viability (NCI-H1792; first compound 1.265 µM): 0.564
- relative viability (NCI-H1792; first compound 4 µM): 0.545
- relative viability (NCI-H2009; first compound 0.04 µM): 0.355
- relative viability (NCI-H2009; first compound 0.1265 µM): 0.384
- relative viability (NCI-H2009; first compound 0.4 µM): 0.338
- relative viability (NCI-H2009; first compound 1.265 µM): 0.314
- relative viability (NCI-H2009; first compound 4 µM): 0.377
- relative viability (NCI-H1395; first compound 0.04 µM): 0.765
- relative viability (NCI-H1395; first compound 0.1265 µM): 0.712
- relative viability (NCI-H1395; first compound 0.4 µM): 0.789
- relative viability (NCI-H1395; first compound 1.265 µM): 0.682
- relative viability (NCI-H1395; first compound 4 µM): 0.751
